Reference: ChEMBL document CHEMBL4152199, “Discovery of 6-chloro-2-(propylthio)-8,9-dihydro-7H-purines containing a carboxamide moiety as potential selective anti-lung cancer agents” (Eur J Med Chem, 2018)
Active and inactive are the calls of the source. The rule behind the calls is not given here.

Assays:
[1] = tested on: A549; assay: Antiproliferative activity against human A549 cells after 72 hrs by MTT assay; type: functional, cell-based; settings: A549, 72 h
[2] = tested on: TE-1; assay: Antiproliferative activity against human TE1 cells after 72 hrs by MTT assay; type: functional, cell-based; settings: TE-1, 72 h
[3] = tested on: MGC-803; assay: Antiproliferative activity against human MGC803 cells after 72 hrs by MTT assay; type: functional, cell-based; settings: MGC-803, 72 h
[4] = tested on: PC-3; assay: Antiproliferative activity against human PC3 cells after 72 hrs by MTT assay; type: functional, cell-based; settings: PC-3, 72 h
[5] = tested on: GES1; assay: Antiproliferative activity against human GES-1 cells after 72 hrs by MTT assay; type: cell-based; settings: GES1, 72 h
[6] = tested on: A549; assay: Up regulation of E-cadherin expression in human A549 cells up to 2 uM after 72 hrs by Western blot analysis; type: functional, cell-based
[7] = tested on: A549; assay: Induction of apoptosis in human A549 cells assessed as induction of apoptotic bodies at 2 uM after 72 hrs by Hoechst 33258 staining based fluorescence microscopic method; type: functional, cell-based
[8] = tested on: A549; assay: Antimigratory activity in human A549 cells after 72 hrs by Hoechst 33258 staining based transwell assay; type: functional, cell-based
[9] = tested on: A549; assay: Antimigratory activity in human A549 cells after 72 hrs by inverted microscopic based wound healing assay; type: functional, cell-based
[10] = tested on: A549; assay: Induction of apoptosis in human A549 cells assessed as increase in Bax level up to 2 uM after 72 hrs by Western blot analysis; type: functional, cell-based
[11] = tested on: A549; assay: Induction of apoptosis in human A549 cells after 72 hrs by Annexin-V-FITC/propidium iodide staining based flow cytometric analysis; type: functional, cell-based
[12] = tested on: A549; assay: Anticlonogenic activity against human A549 cells after 10 days by crystal violet staining based assay; type: functional, cell-based
[13] = Selectivity index, ratio of IC50 for human GES-1 cells to IC50 for human A549 cells; type: toxicity; settings: GES-1 cells versus A549 cells, read-out: Ratio IC50
[14] = tested on: A549; assay: Induction of apoptosis in human A549 cells assessed as chromatin shrinkage at 2 uM after 72 hrs by Hoechst 33258 staining based fluorescence microscopic method; type: functional, cell-based
[15] = tested on: A549; assay: Anticlonogenic activity against human A549 cells at 1 uM after 10 days by crystal violet staining based assay relative to control; type: functional
[16] = tested on: A549; assay: Antiinvasive activity in human A549 cells after 72 hrs by Hoechst 33258 staining based matrigel assay; type: functional, cell-based
[17] = tested on: A549; assay: Induction of apoptosis in human A549 cells assessed as reduction in Bcl-2 level up to 2 uM after 72 hrs by Western blot analysis; type: functional, cell-based
[18] = tested on: A549; assay: Downregulation of N-cadherin expression in human A549 cells up to 2 uM after 72 hrs by Western blot analysis; type: functional, cell-based
[19] = tested on: A549; assay: Downregulation of vimentin expression in human A549 cells up to 2 uM after 72 hrs by Western blot analysis; type: functional, cell-based
[20] = tested on: A549; assay: Induction of apoptosis in human A549 cells assessed as cell rounding at 2 uM after 72 hrs by Hoechst 33258 staining based fluorescence microscopic method; type: functional

## CCCSc1nc(Cl)c2c(n1)N(CCNC(=O)OC(C)(C)C)C(C(=O)N1CCN(C)CC1)N2 (configuration not stated)
[1]
  IC50: 12.4 µM
[2]
  IC50: 51.8 µM
[3]
  IC50: 59.3 µM
[4]
  IC50: > 64 µM

## CCCSc1nc(Cl)c2c(n1)N(CCOC)C(C(=O)N1CCN(C)CC1)N2 (configuration not stated)
[1]
  IC50: 61.8 µM
[2]
  IC50: > 64 µM
[3]
  IC50: > 64 µM
[4]
  IC50: 62.7 µM

## CCCSc1nc(Cl)c2c(n1)N(Cc1ccccc1)C(C(=O)N1CCN(C(=O)OC(C)(C)C)CC1)N2 (configuration not stated)
[1]
  IC50: 29 µM
[2]
  IC50: 31.2 µM
[3]
  IC50: 32 µM
[4]
  IC50: 47.1 µM

## CCCSc1nc(Cl)c2c(n1)N(Cc1ccccc1)C(C(=O)NCCCN1CCOCC1)N2 (configuration not stated)
[1]
  IC50: 42.2 µM
[2]
  IC50: 51.1 µM
[3]
  IC50: > 64 µM
[4]
  IC50: 45.1 µM

## CCCSc1nc(Cl)c2c(n1)N(Cc1ccccc1)C(C(=O)NCC(C)C)N2 (configuration not stated)
[1]
  IC50: 48.2 µM
[2]
  IC50: 46.6 µM
[3]
  IC50: 58.4 µM
[4]
  IC50: > 64 µM

## CCCSc1nc(Cl)c2c(n1)N(Cc1ccccc1)C(C(=O)NCCNC(=O)OC(C)(C)C)N2 (configuration not stated)
[1]
  IC50: 53.2 µM
[2]
  IC50: > 64 µM
[3]
  IC50: > 64 µM
[4]
  IC50: 29.7 µM

## O=c1[nH]cc(F)c(=O)[nH]1 [FLUOROURACIL]
[1]
  IC50: 13.2 µM
[2]
  IC50: 16.5 µM
[5]
  IC50: 12.5 µM
[3]
  IC50: 8.66 µM
[4]
  IC50: 12.3 µM

## CCCSc1nc(Cl)c2c(n1)N(Cc1ccccc1)C(C(=O)NCCc1c[nH]c3ccccc13)N2 (configuration not stated)
[1]
  IC50: 48.8 µM
[2]
  IC50: 30 µM
[3]
  IC50: 27 µM
[4]
  IC50: > 64 µM

## CCCSc1nc(Cl)c2c(n1)N(Cc1ccccc1)C(C(=O)NCCCc1ccccc1)N2 (configuration not stated)
[1]
  IC50: 9.43 µM
[2]
  IC50: 22.9 µM
[3]
  IC50: 16.9 µM
[4]
  IC50: 12.7 µM

## CCCSc1nc(Cl)c2c(n1)N(Cc1ccccc1)C(C(=O)N1CCN(Cc3ccccc3)CC1)N2 (configuration not stated)
[1]
  IC50: 14.4 µM
[2]
  IC50: 48.2 µM
[3]
  IC50: 51.2 µM
[4]
  IC50: 57.3 µM

## CCCSc1nc(Cl)c2c(n1)N(Cc1ccccc1)C(C(=O)N1CCOCC1)N2 (configuration not stated)
[1]
  IC50: > 64 µM
[2]
  IC50: 43.7 µM
[3]
  IC50: 30.2 µM
[4]
  IC50: 53.9 µM

## CCCSc1nc(Cl)c2c(n1)N(Cc1ccccc1)C(C(=O)Nc1ccccc1)N2 (configuration not stated)
[1]
  IC50: 50.2 µM
[2]
  IC50: > 64 µM
[3]
  IC50: 58.4 µM
[4]
  IC50: > 64 µM

## CCCSc1nc(Cl)c2c(n1)N(CC1CCCCC1)C(C(=O)N1CCN(C)CC1)N2 (configuration not stated)
[1]
  IC50: 13.2 µM
[2]
  IC50: > 64 µM
[3]
  IC50: > 64 µM
[4]
  IC50: 12.8 µM

## CCCSc1nc(Cl)c2c(n1)N(Cc1ccccc1)C(C(=O)O)N2 (configuration not stated)
[1]
  IC50: 10.7 µM
[2]
  IC50: > 64 µM
[3]
  IC50: > 64 µM
[4]
  IC50: 49.2 µM

## CCCSc1nc(Cl)c2c(n1)N(Cc1ccccc1)C(C(=O)NCCc1ccccc1)N2 (configuration not stated)
[1]
  IC50: 36.7 µM
[2]
  IC50: 31.2 µM
[3]
  IC50: 46.9 µM
[4]
  IC50: 41.3 µM

## CCCSc1nc(Cl)c2c(n1)N(Cc1ccccc1)C(C(=O)N1CCN(C)CC1)N2 (configuration not stated)
[6]
  Activity: Active
[7]
  Activity: Active
[8]
  Activity: Dose-dependent effect
[9]
  Activity: Dose-dependent effect
[1]
  IC50: 2.8 µM
[2]
  IC50: 42.5 µM
[10]
  Activity: Active
[11]
  Activity: Dose-dependent effect
[5]
  IC50: 303 µM
[12]
  Activity: Dose-dependent effect
[13]
  selectivity ratio: 108
[14]
  Activity: Active
[3]
  IC50: > 64 µM
[15]
  Activity: 57%
[16]
  Activity: Dose-dependent effect
[17]
  Activity: Active
[18]
  Activity: Active
[4]
  IC50: 29.8 µM
[19]
  Activity: Active
[20]
  Activity: Active

## CCCSc1nc(Cl)c2c(n1)N(Cc1ccccc1)C(C(=O)N1CCSCC1)N2 (configuration not stated)
[1]
  IC50: > 64 µM
[2]
  IC50: 47.8 µM
[3]
  IC50: 31.3 µM
[4]
  IC50: 47.9 µM

## CCCSc1nc(Cl)c2c(n1)N(Cc1ccco1)C(C(=O)N1CCN(C)CC1)N2 (configuration not stated)
[1]
  IC50: 13.6 µM
[2]
  IC50: 35 µM
[3]
  IC50: 53.8 µM
[4]
  IC50: 11.3 µM

## CCCSc1nc(Cl)c2c(n1)N(Cc1cccs1)C(C(=O)N1CCN(C)CC1)N2 (configuration not stated)
[1]
  IC50: 6.42 µM
[2]
  IC50: 39.4 µM
[3]
  IC50: 62.3 µM
[4]
  IC50: 5.02 µM

## CCCSc1nc(Cl)c2c(n1)N(Cc1ccccc1)C(C(=O)OCC)N2 (configuration not stated)
[1]
  IC50: 13.8 µM
[2]
  IC50: > 64 µM
[3]
  IC50: 18.5 µM
[4]
  IC50: 62.5 µM
